Test results taken from patent US7138361B2, “Herbicidal heterocycles” (E. I. du Pont de Nemours and Company, priority 2000, dated 2006).

Assays:
Format in all cases: in vivo
[1] = test system: smallflower flatsedge (Cyperus difformis); assay: Test C flooded paddy test; details: for Flatsedge plant response rating: Flooded Paddy, scale 0 to 100, 0 no effect, 100 complete control; for Plant response rating, Flatsedge: flooded paddy test, scale 0 to 100 (0 no effect, 100 complete control)
Method in brief: (§1)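 Plants were grown to the 2-leaf stage under flooded paddy conditions and treated. They were then kept in a greenhouse for 12 to 14 days and visually rated against untreated controls on a 0–100 scale, where 0 is no effect and 100 is complete control.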

[2] = test system: barnyardgrass (Echinochloa crus-galli); assay: Test C flooded paddy test; details: for Barnyardgrass plant response rating: Flooded Paddy, scale 0 to 100, 0 no effect, 100 complete control; for Plant response rating, Barnyardgrass: flooded paddy test, scale 0 to 100 (0 no effect, 100 complete control)
Method in brief: as §1

[3] = test system: duck salad (Heteranthera limosa); assay: Test C flooded paddy test; details: for Ducksalad plant response rating: Flooded Paddy, scale 0 to 100, 0 no effect, 100 complete control; for Plant response rating, Ducksalad: flooded paddy test, scale 0 to 100 (0 no effect, 100 complete control)
Method in brief: as §1

[4] = test system: cocklebur (Xanthium strumarium); assay: Test C preemergence; details: preemergence
Method in brief: (§2)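 Test chemicals, formulated in a non-phytotoxic solvent mixture with surfactant, were applied preemergence to planted seeds or postemergence to plants 2 to 18 cm tall (1- to 4-leaf stage). After 12 to 14 days in a greenhouse, injury was visually rated against untreated controls on a 0–100 scale.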

[5] = test system: goosegrass (Eleusine indica); assay: Test C preemergence
Method in brief: as §2

[6] = test system: pigweed (Amaranthus retroflexus); assay: Test C preemergence
Method in brief: as §2

Sunflower [7] = assay: Test C preemergence; details: Rate 62 g/ha; scale 0 to 100, 0 no effect, 100 complete control
[8] = test system: yellow nutsedge (Cyperus esculentus); assay: Test C preemergence
Method in brief: as §2

[9] = test system: bermudagrass (Cynodon dactylon); assay: Test C preemergence
Method in brief: as §2

[10] = test system: lambsquarters (Chenopodium album); assay: Test C preemergence
Method in brief: as §2

corn (Zea mays) = assay: Test C preemergence
Method in brief: as §2

[11] = test system: giant foxtail (Setaria faberii); assay: Test C preemergence
Method in brief: as §2

[12] = test system: morningglory (Ipomoea hederacea); assay: Test C preemergence
Method in brief: as §2

[13] = test system: velvetleaf (Abutilon theophrasti); assay: Test C preemergence
Method in brief: as §2

soybean (Glycine max) = assay: Test C preemergence
Method in brief: as §2

kochia (Kochia scoparia) = assay: Test C preemergence
Method in brief: as §2

[14] = test system: woolly cupgrass (Eriochloa villosa); assay: Test C preemergence
Method in brief: as §2

[15] = test system: crabgrass (Digitaria sanguinalis); assay: Test C preemergence
Method in brief: as §2

Nightshade = assay: Test C preemergence
[16] = test system: Surinam grass (Brachiaria decumbens); assay: Test C preemergence
Method in brief: as §2

[17] = test system: johnsongrass (Sorghum halepense); assay: Test C preemergence
Method in brief: as §2

Sunflower [18] = assay: Test C preemergence; details: Rate 250 g/ha, visual evaluation after 12 to 14 days
[19] = Rate 125 g/ha, scale 0 to 100, 0 no effect, 100 complete control
[20] = Rate 62 g/ha, scale 0 to 100, 0 no effect, 100 complete control
[21] = preemergence, Rate 31 g/ha, scale 0 to 100
[22] = preemergence, Rate 250 g/ha, visual evaluation after 12 to 14 days
[23] = preemergence, Rate 125 g/ha, scale 0 to 100, 0 no effect, 100 complete control

O=C1C(n2ccc(C3CCC3)n2)SCN1c1cccc(C(F)(F)F)c1 (stereo not shown) [Compound 37]
70: Plant response rating, Barnyardgrass ([2]; Rate 62 g/ha) | Plant response rating, Bermudagrass [9, 20] | Plant response rating, Foxtail, Giant [11, 23]
50: Plant response rating, Foxtail, Giant [11, 21] | Plant response rating (0 to 100), Soybean (soybean (Glycine max); [22]) | Plant response rating, Kochia (kochia (Kochia scoparia); [20])
30: Plant response rating (0 to 100), Nutsedge [8, 22] | Plant response rating (0 to 100), Morningglory [12, 22] | Plant response rating, Johnsongrass [17, 20] | Plant response rating, Johnsongrass [17, 23]
90: Ducksalad plant response rating ([3]; Rate 250 g/ha) | Plant response rating, Goosegrass [5, 20] | Plant response rating, Goosegrass [5, 23] | Plant response rating, Crabgrass [15, 20] | Plant response rating, Crabgrass [15, 23] | Plant response rating (0 to 100), Surinam grass [16, 22] | Plant response rating (0 to 100), Johnsongrass [17, 22]
0: Plant response rating, Cocklebur ([4]; Rate 31 g/ha, scale 0 to 100) | Plant response rating (0 to 100), Cocklebur ([4]; Rate 250 g/ha, visual evaluation after 12 to 14 days) | Plant response rating, Cocklebur [4, 19] | Plant response rating, Pigweed [6, 20] | Plant response rating, Pigweed [6, 21] | Plant response rating, Pigweed [6, 23] | Plant response rating, Sunflower (Sunflower [7]) | Plant response rating, Nutsedge [8, 21] | Plant response rating, Corn (corn (Zea mays); [20]) | Plant response rating, Corn (corn (Zea mays); [21]) | Plant response rating, Morningglory [12, 20] | Plant response rating, Morningglory [12, 21] | Plant response rating, Morningglory [12, 23] | Plant response rating, Velvetleaf [13, 20] | Plant response rating, Velvetleaf [13, 21] | Plant response rating, Soybean (soybean (Glycine max); [20]) | Plant response rating, Soybean (soybean (Glycine max); [21]) | Plant response rating, Cupgrass, Woolly [14, 20] | Plant response rating, Cupgrass, Woolly [14, 21] | Plant response rating, Cupgrass, Woolly [14, 23] | Plant response rating, Nightshade (Nightshade; Rate 31 g/ha, scale 0 to 100) | Plant response rating, Nightshade (Nightshade; [20]) | Plant response rating, Nightshade (Nightshade; [19]) | Plant response rating, Surinam grass [16, 20] | Plant response rating, Surinam grass [16, 21] | Plant response rating, Surinam grass [16, 23]
60: Plant response rating, Goosegrass [5, 21] | Plant response rating, Bermudagrass [9, 21] | Plant response rating, Foxtail, Giant [11, 20] | Plant response rating (0 to 100), Sunflower (Sunflower [18])
100: Flatsedge plant response rating ([1]; Rate 250 g/ha) | Flatsedge plant response rating ([1]; Rate 500 g/ha) | Plant response rating, Flatsedge ([1]; Rate 62 g/ha) | Plant response rating, Flatsedge ([1]; Rate 125 g/ha) | Barnyardgrass plant response rating ([2]; Rate 250 g/ha) | Barnyardgrass plant response rating ([2]; Rate 500 g/ha) | Plant response rating, Barnyardgrass ([2]; Rate 125 g/ha) | Ducksalad plant response rating ([3]; Rate 500 g/ha) | Plant response rating (0 to 100), Goosegrass [5, 22] | Plant response rating (0 to 100), Pigweed [6, 22] | Plant response rating (0 to 100 where 0 is no effect and 100 is complete control), Bermudagrass [9, 22] | Plant response rating, Lambsquarters [10, 20] | Plant response rating, Lambsquarters [10, 21] | Plant response rating (0 to 100), Lambsquarters [10, 22] | Plant response rating, Lambsquarters [10, 23] | Plant response rating (0 to 100), Foxtail, Giant [11, 22] | Plant response rating (0 to 100), Kochia (kochia (Kochia scoparia); [22]) | Plant response rating, Kochia (kochia (Kochia scoparia); [23]) | Plant response rating (0 to 100), Cupgrass, Woolly [14, 22] | Plant response rating (0 to 100), Crabgrass [15, 22]
40: Plant response rating (0 to 100), Corn (corn (Zea mays); [22]) | Plant response rating, Corn (corn (Zea mays); [23]) | Plant response rating, Kochia (kochia (Kochia scoparia); [21])
80: Plant response rating, Ducksalad ([3]; Rate 125 g/ha) | Plant response rating, Bermudagrass [9, 23] | Plant response rating, Crabgrass [15, 21]
20: Plant response rating, Ducksalad ([3]; Rate 62 g/ha) | Plant response rating, Nutsedge [8, 20] | Plant response rating, Nutsedge [8, 23] | Plant response rating (0 to 100), Velvetleaf [13, 22] | Plant response rating, Velvetleaf [13, 23] | Plant response rating, Johnsongrass [17, 21]
